The values that follow come from patent US7514446B2, “Pyrimidine compounds” (SmithKline Beecham Corporation, priority 2003, dated 2009).

Molecules are shown by their SMILES. Where a name gives a salt, the structure may show the parent alone.

In assay [1] the test system is H460 lung tumor cell line. The assay is described as follows: Methylene Blue Growth Inhibition Assay, H460. The class given is cell-based. The conditions noted are these: Homo sapiens, NCI-H460, 72 h; H460 cells, 3 days; read-out: MeB Cell Line IC50. As for the experimental part: (§1) II. Methylene Blue Growth Inhibition Assay
(§2) Normal Human foreskin fibroblasts (HFF) and human colon (HCT116, RKO), lung (H460), prostate (PC3), and breast tumor (MCF7) cell lines were cultured in high glucose DMEM (Life Technologies) containing 10% fetal bovine serum (FBS) at 37° C. in a humidified 10% CO2, 90% air incubator. Cells were harvested using trypsin/EDTA, counted using a haemocytometer, and plated in 100 μl of the appropriate media, at the following densities, in a 96-well tissue culture plate (Falcon 3075): HFF 5,000 cells/well, HCT116 3,000 cells/well, RKO 2,500 cells/well, H460 2,000 cells/well, PC3 8,000 cells/well, MCF7 4,000 cells/well. The next day, compounds were diluted in DMEM containing 100 μg/ml gentamicin, at twice the final required concentration, from 10 mM stock solutions in DMSO. 100 μl/well of these dilutions were added to the 100 μl of media currently on the cell plates. Medium containing 0.6% DMSO was added to control wells. Compounds diluted in DMEM were added to all cell lines. The final concentration of DMSO in all wells was 0.3%. Cells were incubated at 37° C., 10% CO2 for 3 days. Medium was removed by aspiration. Cell biomass was estimated by staining cells with 90 μl per well methylene blue (Sigma M9140, 0.5% In 50:50 ethanol:water), and incubation at room temperature for at least 30 minutes. Stain was removed, and the plates rinsed under a gentle stream of water, and air-dried. To release stain from the cells 100 μl of solubilization solution was added (1% N-lauroyl sarcosine, Sodium salt, Sigma L5125, in PBS), and plates were shaken gently for about 30 minutes. Optical density at 620 nm was measured on a microplate reader. Percent inhibition of cell growth was calculated relative to vehicle treated control wells. Concentration of compound that inhibits 50% of cell growth (IC50) was interpolated using nonlinear regression (Levenberg-Marquardt) and the equation, y=Vmax*(1−(x/(K+x)))+Y2, where “K” was equal to the IC50. In Table 1, +=10->30 uM; ++=1-10 uM: +++=<1 uM.

Assay [2] relates to HCT116 colon tumor cell line. The assay is described as follows: Methylene Blue Growth Inhibition Assay, HCT116. The conditions noted are these: Homo sapiens, HCT-116, 72 h; HCT116 cells, 3 days; read-out: MeB Cell Line IC50. The assay is classed as cell-based. As to the method: as §1, §2
Assay [3] relates to Normal Human foreskin fibroblasts (HFF). The assay is described as follows: Methylene Blue Growth Inhibition Assay, HFF. The class given is cell-based. The conditions noted are these: 72 h, HFF cells, 3 days, read-out: MeB Cell Line IC50. As for the experimental part: as §1, §2
Assay [4] has as its system MCF7 breast tumor cell line. Kind of assay: Methylene Blue Growth Inhibition Assay, MCF7. The assay is classed as cell-based. The conditions noted are these: Homo sapiens, 72 h; MCF7 cells, 3 days; read-out: MeB Cell Line IC50. As for the experimental part:
as §1, §2

The subject of assay [5] is PC3 prostate tumor cell line. The assay is described as follows: Methylene Blue Growth Inhibition Assay, PC3. The class given is cell-based. The conditions noted are these: Homo sapiens, PC-3, 72 h; PC3 cells, 3 days; read-out: MeB Cell Line IC50. As for the experimental part: as §1, §2
For assay [6], the system named is RKO colon tumor cell line. Kind of assay: Methylene Blue Growth Inhibition Assay, RKO. The class given is cell-based. The conditions noted are these: Homo sapiens, 72 h; RKO cells, 3 days; read-out: MeB Cell Line IC50. As for the experimental part: as §1, §2
The target of the next assay is T1, PLK1 kinase domain (Homo sapiens, UniProt P53350).
T1 construct: made in house; host or cells: baculovirus-infected T. ni insect cells
T1 sequence (P53350 21-346): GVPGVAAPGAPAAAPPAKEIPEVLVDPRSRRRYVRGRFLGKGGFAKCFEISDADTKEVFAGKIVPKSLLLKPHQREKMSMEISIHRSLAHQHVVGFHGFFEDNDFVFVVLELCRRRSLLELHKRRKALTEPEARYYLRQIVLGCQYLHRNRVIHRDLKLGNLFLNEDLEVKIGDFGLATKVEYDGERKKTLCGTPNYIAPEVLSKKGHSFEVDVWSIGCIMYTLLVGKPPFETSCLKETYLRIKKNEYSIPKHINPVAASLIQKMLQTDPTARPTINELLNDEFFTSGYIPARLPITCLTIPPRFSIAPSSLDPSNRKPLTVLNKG
The assay is described as follows: Assay for inhibition of PLK1 (SPA, 33P-ATP, His-tagged PLK kinase domain). The assay is classed as biochemical. The conditions noted are these: 2 μM ATP, read-out: Ave pIC50 PLK Enzyme Inhibition (converted). As to the method:
I. Assay for Inhibition of PLK1
A. Preparation of 6× N-terminal His-tagged PLK Kinase Domain
6× N-terminal His-tagged PLK kinase domain (amino acids 21-346 preceded by […]) was prepared from baculovirus infected T. ni cells under polyhedrin promoter control. All procedures were performed at 4° C. Cells were lysed in 25 mM HEPES, 200 mM NaCl, 25 mM imidazole; pH 8.0. The homogenate was centrifuged at 14K rpm in a SLA-1500 rotor for 40 min and the supernatant filtered through a 1.2 micron filter. The supernatant was loaded onto a Nickel chelating Sepharose (Amersham Pharmacia) column and washed with 25 mM HEPES, 500 mM NaCl, 25 mM imidazole; pH 8.0. The column was then washed with a 16.6% B step where buffer B is 25 mM HEPES, 500 mM NaCl, 300 mM imidazole; pH 8.0. Protein was eluted using a 10-column volume linear gradient from 16.6% B to 100% B. Fractions containing PLK were determined by SDS-PAGE. PLK was concentrated using a 10 kDa molecular weight cutoff membrane and then loaded onto a Superdex 75 gel filtration (Amersham Pharmacia) column equilibrated in 25 mM HEPES, 1 mM DTT, 500 mM NaCl; pH 8.0. Fractions containing PLK were determined by SDS-PAGE. PLK was pooled, aliquoted and stored at −80° C. Samples were quality controlled using mass spectrometry.
B. Enzyme Activity+/−Inhibitors was Determined as Follows:
Compounds were added to the plate (1 μl in 100% DMSO). DMSO (2% final) and EDTA (55.5 mM final) were used as controls. Reaction Mix A is prepared as follows at 4° C.:
Reaction Mix A (substrate Mix): • 25 mM HEPES, pH 7.2 • 15 mM MgCl2 • 2 μM ATP • 0.1 μCi/well ^33P-γ ATP (10 Ci/mMol) • 2 μM substrate peptide (Biotin-Ahx-[…]) Reaction Mix B is prepared as follows at 4° C.:
Reaction Mix B (Enzyme Mix) • 25 mM HEPES, pH 7.2 • 15 mM MgCl2 • 0.15 mg/ml BSA • 2 mM DTT • 2-10 nM PLK1 kinase domain
Reaction Mix A (20 μl) is added per well. Reaction Mix B (20 μl) is added per well. Incubate 1.5 hrs. at RT. The enzymatic reaction is stopped with 175 μl of SPA/EDTA bead mix (29 mM EDTA, 2.5 mg/ml Streptavidin-coated SPA in Standard Dulbecco's PBS (without Mg^2+ and Ca^2+), 60 μM ATP). Plates are sealed spun (after a 1 hr incubation at RT) at 1,000×g for 7 min or settled overnight, then plates counted in Packard TopCount for 30 seconds/well.

For the compound `COc1cc(Nc2ncc([N+](=O)[O-])c(Nc3ccccc3C(N)=O)n2)cc(OC)c1OC` [Example 3, 2-({5-nitro-2-[(3,4,5-trimethoxyphenyl)amino]pyrimidin-4-yl}amino)benzamide hydrochloride], the IC50 in assay [1] is < 1 µM; in assay [2] it was < 1 µM; in assay [3], 1 to 10 µM; in assay [4], < 1 µM; in assay [5] it was 1 to 10 µM; in assay [6], < 1 µM.
In the case of `COc1cc(Nc2ncc([N+](=O)[O-])c(Nc3ccccc3C(=O)NC(C)(C)C)n2)cc(OC)c1OC` [Example 5, N-(tert-butyl)-2-({5-nitro-2-[(3,4,5-trimethoxyphenyl)amino]pyrimidin-4-yl}amino)benzamide hydrochloride], the IC50 on PLK1 kinase domain was < 0.1 µM; in assay [1], 1 to 10 µM; in assay [2], 1 to 10 µM; in assay [3], 1 to 10 µM; in assay [4] it was 1 to 10 µM; in assay [5], 1 to 10 µM. Moreover, in assay [6], the IC50 was in the range of 1 to 10 µM.
Take `CC(=O)Nc1ccc(Nc2ncc([N+](=O)[O-])c(Nc3ccccc3C(=O)c3ccccc3)n2)cc1` [Example 7, N-[4-({4-[(2-benzoylphenyl)amino]-5-nitropyrimidin-2-yl}amino)phenyl]acetamide hydrochloride]: the IC50 at PLK1 kinase domain was < 0.1 µM; in assay [1], 1 to 10 µM; in assay [2], 1 to 10 µM; in assay [3], > 10 µM; in assay [4], 1 to 10 µM; in assay [5], 1 to 10 µM. Besides, the IC50 in assay [6] is 1 to 10 µM.
Turning to `COc1cc(Nc2ncc([N+](=O)[O-])c(Nc3cccc4c3C(=O)CCC4)n2)cc(OC)c1OC` [Example 9, 8-({5-nitro-2-[(3,4,5-trimethoxyphenyl)amino]pyrimidin-4-yl}amino)-3,4-dihydronaphthalen-1(2H)-one hydrochloride], the IC50 on PLK1 kinase domain was < 0.1 µM; in assay [1], 1 to 10 µM; in assay [2], 1 to 10 µM; in assay [3], > 10 µM; in assay [4], 1 to 10 µM; in assay [5], 1 to 10 µM. Also, in assay [6], the IC50 lay in the range of 1 to 10 µM.
As to `COc1cc(Nc2ncc([N+](=O)[O-])c(Nc3cccc4[nH]ccc34)n2)cc(OC)c1OC` [Example 15, N^4-(1H-indol-4-yl)-5-nitro-N^2-(3,4,5-trimethoxyphenyl)pyrimidine-2,4-diamine hydrochloride], the IC50 on PLK1 kinase domain was < 0.1 µM; in assay [1] it was 1 to 10 µM; in assay [2], 1 to 10 µM; in assay [3] it was 1 to 10 µM; in assay [4], 1 to 10 µM; in assay [5], 1 to 10 µM. The IC50 in assay [6] was < 1 µM.
As for `COc1cc(Nc2ncc([N+](=O)[O-])c(Nc3cccc4c3OCCO4)n2)cc(OC)c1OC` [Example 19, N^4-(2,3-dihydro-1,4-benzodioxin-5-yl)-5-nitro-N^2-(3,4,5-trimethoxyphenyl)pyrimidine-2,4-diamine hydrochloride], the IC50 is < 0.1 µM on PLK1 kinase domain; 1 to 10 µM in assay [1]; > 10 µM in assay [2]; > 10 µM in assay [3]; 1 to 10 µM in assay [4]; > 10 µM in assay [5]. The IC50 in assay [6] fell in the range of 1 to 10 µM.
With `COc1cc(Nc2ncc([N+](=O)[O-])c(Nc3ccc(O)cc3C(=O)O)n2)cc(OC)c1OC` [Example 22, 5-Hydroxy-2-({5-nitro-2-[(3,4,5-trimethoxyphenyl)amino]pyrimidin-4-yl}amino)benzoic acid hydrochloride], the IC50 was < 0.1 µM on PLK1 kinase domain; > 10 µM in assay [1]; > 10 µM in assay [2]; > 10 µM in assay [3]; > 10 µM in assay [4]; > 10 µM in assay [5]. Moreover, the IC50 in assay [6] was > 10 µM.
In the case of `COc1cc(Nc2ncc([N+](=O)[O-])c(Nc3ccccc3C(=O)NC3CCCCC3)n2)cc(OC)c1OC` [Example 34, N-Cyclohexyl-2-({5-nitro-2-[(3,4,5-trimethoxyphenyl)amino]pyrimidin-4-yl}amino)benzamide hydrochloride], the IC50 is < 0.1 µM on PLK1 kinase domain; 1 to 10 µM in assay [1]; 1 to 10 µM in assay [2]; 1 to 10 µM in assay [3]; 1 to 10 µM in assay [4]; > 10 µM in assay [5]. Moreover, the IC50 in assay [6] was in the range of 1 to 10 µM.
As for `COc1cc(Nc2ncc([N+](=O)[O-])c(Nc3ccc(Cl)cc3C(=O)c3ccccc3F)n2)cc(OC)c1OC` [Example 36, [5-Chloro-2-({5-nitro-2-[(3,4,5-trimethoxyphenyl)amino]pyrimidin-4-yl}amino)phenyl](2-fluorophenyl)methanone hydrochloride], the IC50 is < 0.1 µM on PLK1 kinase domain; 1 to 10 µM in assay [1]; 1 to 10 µM in assay [2]; > 10 µM in assay [3]; 1 to 10 µM in assay [4]; > 10 µM in assay [5]. In addition, the IC50 in assay [6] lay within 1 to 10 µM.
For `COc1cc(Nc2ncc(C#N)c(Nc3ccccc3C(=O)c3ccc(C)cc3)n2)cc(OC)c1OC` [Example 39, 4-{[2-(4-Methylbenzoyl)phenyl]amino}-2-[(3,4,5-trimethoxyphenyl)amino]pyrimidine-5-carbonitrile], the IC50 is < 0.1 µM on PLK1 kinase domain; 1 to 10 µM in assay [1]; 1 to 10 µM in assay [2]; > 10 µM in assay [3]; 1 to 10 µM in assay [4]; 1 to 10 µM in assay [5]. In addition, in assay [6], the IC50 is 1 to 10 µM.
